# Assay results as given in EP0745599A2, “1-(3-Heterocyclylphenyl)-s-triazine-2,4,6-oxo or thiotrione herbicidal agents” (American Cyanamid Company, priority 1995, dated 1996).
# Tests used:
# Format in all cases: in vivo
# Conditions in all cases: rated four to five weeks after treatment
# [1] = tested on: ECHINOCHLOA CRUS-GALLI, (L) BEAU; test: Postemergence herbicidal evaluation, ECHCG (Barnyardgrass)
# Procedure, shortened: (§1)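 Compound is dispersed in 50/50 acetone/water containing 0.5% TWEEN®20 and sprayed at 40 psi onto seedlings about two weeks old, delivering about 0.125–0.500 kg/ha. Injury is scored 0–9 four to five weeks later.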
# [2] = tested on: ORYZA SATIVA, L. TEBONNET; test: Postemergence herbicidal evaluation, ORYSAT (Rice, Tebonnet)
# Procedure: (§2) In the tests, seedling plants are grown in jiffy flats for about two weeks. The test compounds are dispersed in 50/50 acetone/water mixtures containing 0.5% TWEEN®20, a polyoxyethylene sorbitan monolaurate surfactant of Atlas Chemical Industries, in sufficient quantities to provide the equivalent of about 0.125 kg to 0.500 kg per hectare of active compound when applied to the plants through a spray nozzle operating at 40 psi for a predetermined time. After spraying, the plants are placed on greenhouse benches and are cared for in the usual manner, commensurate with conventional greenhouse practices. From four to five weeks after treatment, the seedling plants are examined and rated according to the rating system set forth below. Where more than one test is involved for a given compound, the data are averaged.
# (§3) Results of herbicide evaluation are expressed on a rating scale (0-9). The scale is based upon a visual observation of plant stand, vigor, malformation, size, chlorosis and overall plant appearance as compared with a control.
# [3] = tested on: TRITICUM AESTIVUM, CV. APOLLO; test: Postemergence herbicidal evaluation, TRZAWO (Wheat, Winter, CV. APOLLO)
# Procedure: as §2, §3
# [4] = tested on: GLYCINE MAX(L)MERR. CV. WILLIAMS; test: Postemergence herbicidal evaluation, GLXMAW (Soybean, Williams)
# Procedure: as §2, §3
# [5] = tested on: SETARIA VIRIDIS, (L) BEAU; test: Postemergence herbicidal evaluation, SETVI (Foxtail, Green)
# Procedure, shortened: as §1
# [6] = tested on: AMBROSIA ARTEMISIIFOLIA, L.; test: Postemergence herbicidal evaluation, AMBEL (Ragweed, Common)
# Procedure: as §2, §3
# [7] = tested on: ECHINOCHLOA CRUS-GALLI, (L) BEAU; test: Preemergence herbicidal evaluation, ECHCG (Barnyardgrass)
# Procedure, shortened: (§4)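 Values are visual ratings from 0 to 9, judged against a control on stand, vigor, malformation, size, chlorosis and overall appearance. Test compound in aqueous acetone was sprayed onto freshly seeded cups at roughly 0.125 to 0.50 kg per hectare, with scoring four to five weeks later.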
# CASSIA OBTUSIFOLIA, L. [8] = test: Postemergence herbicidal evaluation, CASOB (Sicklepod)
# Procedure: as §2, §3
# [9] = tested on: TRITICUM AESTIVUM, CV. APOLLO; test: Preemergence herbicidal evaluation, TRZAWO (Wheat, Winter, CV. APOLLO)
# Procedure, shortened: as §4
# CHENOPODIUM ALBUM, L. [10] = test: Preemergence herbicidal evaluation, CHEAL (Lambsquarters, Common)
# Procedure, shortened: as §4
# CHENOPODIUM ALBUM, L. [11] = test: Postemergence herbicidal evaluation, CHEAL (Lambsquarters, Common)
# Procedure: as §2, §3
# [12] = tested on: ORYZA SATIVA, L. TEBONNET; test: Preemergence herbicidal evaluation, ORYSAT (Rice, Tebonnet)
# Procedure, shortened: as §4
# [13] = tested on: ABUTILON THEOPHRASTI, MEDIC.; test: Postemergence herbicidal evaluation, ABUTH (Velvetleaf)
# Procedure: as §2, §3
# CASSIA OBTUSIFOLIA, L. [14] = test: Preemergence herbicidal evaluation, CASOB (Sicklepod)
# Procedure, shortened: as §4
compound,measurement,setting,value
"C=CCn1c(=O)n(CC=C)c(=O)n(-c2cc(N3C(=O)C4=C(CCCC4)C3=O)c(F)cc2Cl)c1=O [Compound 19, N-[4-Chloro-5-(3,5-diallylhexahydro-2,4,6-trioxo-s-triazin-1-yl)-2-fluorophenyl]-1-cyclohexene-1,2-dicarboximide]",Herbicide rating (0-9) ECHCG,[1]; 0.125 kg/ha,0.0
same,Herbicide rating (0-9) ECHCG,[1]; 0.250 kg/ha,0.0
same,Herbicide rating (0-9) ECHCG,[1]; 0.500 kg/ha,0.0
same,Herbicide rating (0-9) ORYSAT,[2]; 0.125 kg/ha,2.0
same,Herbicide rating (0-9) ORYSAT,[2]; 0.250 kg/ha,2.0
same,Herbicide rating (0-9) ORYSAT,[2]; 0.500 kg/ha,2.0
same,Herbicide rating (0-9) TRZAWO,[3]; 0.125 kg/ha,2.0
same,Herbicide rating (0-9) TRZAWO,[3]; 0.250 kg/ha,2.0
same,Herbicide rating (0-9) TRZAWO,[3]; 0.500 kg/ha,2.0
same,Herbicide rating (0-9) GLXMAW,[4]; 0.125 kg/ha,1.0
same,Herbicide rating (0-9) GLXMAW,[4]; 0.250 kg/ha,1.0
same,Herbicide rating (0-9) GLXMAW,[4]; 0.500 kg/ha,1.0
same,Herbicide rating (0-9) SETVI,[5]; 0.125 kg/ha,0.0
same,Herbicide rating (0-9) SETVI,[5]; 0.250 kg/ha,0.0
same,Herbicide rating (0-9) SETVI,[5]; 0.500 kg/ha,0.0
"CC(C)OC(=O)Cn1c(=O)n(C)c(=O)n(-c2cc(N3C(=O)C4CSCCN4C3=O)c(F)cc2Cl)c1=O (stereo not drawn) [Compound 12, Isopropyl 3-{2-chloro-4-fluoro-5-[5,6,8,8a-tetrahydro-1,3-dioxo-1H-imidazo[5,1c][1,4]-thiazin-2(3H)-yl]phenyl}tetrahydro-5-methyl-2,4,6-trioxo-s-triazine-1(2H)-acetate]",Herbicide rating (0-9) AMBEL,[6]; 0.125 kg/ha,9.0
same,Herbicide rating (0-9) AMBEL,[6]; 0.250 kg/ha,9.0
same,Herbicide rating (0-9) AMBEL,[6]; 0.500 kg/ha,9.0
same,Herbicide rating (0-9) ECHCG,[7]; 0.125 kg/ha,0.0
same,Herbicide rating (0-9) ECHCG,[7]; 0.250 kg/ha,0.0
same,Herbicide rating (0-9) ECHCG,[7]; 0.500 kg/ha,0.0
same,Herbicide rating (0-9) CASOB,"CASSIA OBTUSIFOLIA, L. [8]; 0.125 kg/ha",9.0
same,Herbicide rating (0-9) CASOB,"CASSIA OBTUSIFOLIA, L. [8]; 0.250 kg/ha",9.0
same,Herbicide rating (0-9) CASOB,"CASSIA OBTUSIFOLIA, L. [8]; 0.500 kg/ha",9.0
same,Herbicide rating (0-9) TRZAWO,[9]; 0.125 kg/ha,0.0
same,Herbicide rating (0-9) TRZAWO,[9]; 0.250 kg/ha,0.0
same,Herbicide rating (0-9) TRZAWO,[9]; 0.500 kg/ha,0.0
same,Herbicide rating (0-9) CHEAL,"CHENOPODIUM ALBUM, L. [10]; 0.125 kg/ha",9.0
same,Herbicide rating (0-9) CHEAL,"CHENOPODIUM ALBUM, L. [10]; 0.250 kg/ha",9.0
same,Herbicide rating (0-9) CHEAL,"CHENOPODIUM ALBUM, L. [10]; 0.500 kg/ha",9.0
same,Herbicide rating (0-9) TRZAWO,[3]; 0.125 kg/ha,2.5
same,Herbicide rating (0-9) TRZAWO,[3]; 0.250 kg/ha,2.5
same,Herbicide rating (0-9) TRZAWO,[3]; 0.500 kg/ha,2.5
same,Herbicide rating (0-9) CHEAL,"CHENOPODIUM ALBUM, L. [11]; 0.125 kg/ha",9.0
same,Herbicide rating (0-9) CHEAL,"CHENOPODIUM ALBUM, L. [11]; 0.250 kg/ha",9.0
same,Herbicide rating (0-9) CHEAL,"CHENOPODIUM ALBUM, L. [11]; 0.500 kg/ha",9.0
same,Herbicide rating (0-9) ORYSAT,[12]; 0.125 kg/ha,0.0
same,Herbicide rating (0-9) ORYSAT,[12]; 0.250 kg/ha,0.0
same,Herbicide rating (0-9) ORYSAT,[12]; 0.500 kg/ha,0.0
same,Herbicide rating (0-9) ABUTH,[13]; 0.125 kg/ha,9.0
same,Herbicide rating (0-9) ABUTH,[13]; 0.250 kg/ha,9.0
same,Herbicide rating (0-9) ABUTH,[13]; 0.500 kg/ha,9.0
same,Herbicide rating (0-9) CASOB,"CASSIA OBTUSIFOLIA, L. [14]; 0.125 kg/ha",9.0
same,Herbicide rating (0-9) CASOB,"CASSIA OBTUSIFOLIA, L. [14]; 0.250 kg/ha",9.0
same,Herbicide rating (0-9) CASOB,"CASSIA OBTUSIFOLIA, L. [14]; 0.500 kg/ha",9.0
